Values quoted from earlier work as cited in patent US4942167A, “Pharmaceutical compositions of piroxicam in aqueous solutions and process for their preparation” (Chiesi Farmaceutici S.p.A., priority 1988, dated 1990).

Conditions: in words, background

## CN1C(C(=O)Nc2ccccn2)=C(O)c2ccccc2S1(=O)=O [piroxicam, N-(2-pyridyl)-2-methyl-4-hydroxy-2H-1,2-benzothiazine-3-carboxyamido-1,1-dioxide]
  water-solubility: poor
